Assay results taken from patent US10966978B2, “Dose and regimen for HDM2-p53 interaction inhibitors” (Novartis AG, priority 2016, dated 2021).
Where two headings read alike, the source gives them in different places.

Tested on: patients with advanced TP53 wild-type (WT) leukemias

COc1ncc(-c2nc3c(n2C(C)C)[C@H](c2ccc(Cl)cc2)N(c2cc(Cl)cn(C)c2=O)C3=O)c(OC)n1 [HDM201, (S)-5-(5-Chloro-1-methyl-2-oxo-1,2-dihydro-pyridin-3-yl)-6-(4-chloro-phenyl)-2-(2,4-dimethoxy-pyrimidin-5-yl)-1-isopropyl-5,6-dihydro-1H-pyrrolo[3,4-d]imidazol-4-one]
4 (50.0) n (%): AE: Neutropenia/Neutrophil Count Decreased (Regimen 2C N = 8, All Grades)
5 (62.5) n (%): AE: Thrombocytopenia/Platelet Count Decreased (Regimen 2C N = 8, All Grades) | AE: Thrombocytopenia/Platelet Count Decreased (Regimen 2C N = 8, Grade 3/4) | AE: Total (Regimen 2C N = 8, Grade 3/4)
0 n (%): AE: Oedema (Regimen 2C N = 8, All Grades) | AE: Oedema Peripheral (Regimen 2C N = 8, All Grades) | AE: Oral Disorder (Regimen 2C N = 8, All Grades) | AE: Pain In Extremity (Regimen 2C N = 8, All Grades) | AE: Pneumonia (Regimen 2C N = 8, All Grades) | AE: Pollakiuria (Regimen 2C N = 8, All Grades) | AE: Pyrexia (Regimen 2C N = 8, All Grades) | AE: Rash (Regimen 2C N = 8, All Grades) | AE: Rash Erythematous (Regimen 2C N = 8, All Grades) | AE: Rash Papular (Regimen 2C N = 8, All Grades) | AE: Rectal Haemorrhage (Regimen 2C N = 8, All Grades) | AE: Skin Exfoliation (Regimen 2C N = 8, All Grades) | AE: Subarachnoid Haemorrhage (Regimen 2C N = 8, All Grades) | AE: Weight Decreased (Regimen 2C N = 8, All Grades) | AE: Abdominal Discomfort (Regimen 2C N = 8, Grade 3/4) | AE: Abdominal Pain (Regimen 2C N = 8, Grade 3/4) | AE: Abdominal Pain Upper (Regimen 2C N = 8, Grade 3/4) | AE: Amylase Increased (Regimen 2C N = 8, Grade 3/4) | AE: Arthralgia (Regimen 2C N = 8, Grade 3/4) | AE: Asthenia (Regimen 2C N = 8, Grade 3/4) | AE: Atrial Fibrillation (Regimen 2C N = 8, Grade 3/4) | AE: Atypical Pneumonia (Regimen 2C N = 8, Grade 3/4) | AE: Balanitis Candida (Regimen 2C N = 8, Grade 3/4) | AE: Blood Alkaline Phosphatase Increased (Regimen 2C N = 8, Grade 3/4) | AE: Blood Bilirubin Increased (Regimen 2C N = 8, Grade 3/4) | AE: Blood Phosphorus Increased (Regimen 2C N = 8, Grade 3/4) | AE: Blood Uric Acid Increased (Regimen 2C N = 8, Grade 3/4) | AE: Bone Marrow Failure (Regimen 2C N = 8, Grade 3/4) | AE: C-Reactive Protein Increased (Regimen 2C N = 8, Grade 3/4) | AE: Cardiac Failure (Regimen 2C N = 8, Grade 3/4) | AE: Cellulitis (Regimen 2C N = 8, Grade 3/4) | AE: Chronic Graft Versus Host Disease (Regimen 2C N = 8, Grade 3/4) | AE: Conjunctival Haemorrhage (Regimen 2C N = 8, Grade 3/4) | AE: Constipation (Regimen 2C N = 8, Grade 3/4) | AE: Cough (Regimen 2C N = 8, Grade 3/4) | AE: Cystitis Viral (Regimen 2C N = 8, Grade 3/4) | AE: Cytomegalovirus Infection (Regimen 2C N = 8, Grade 3/4) | AE: Decreased Appetite (Regimen 2C N = 8, Grade 3/4) | AE: Diarrhoea (Regimen 2C N = 8, Grade 3/4) | AE: Dyspepsia (Regimen 2C N = 8, Grade 3/4) | AE: Dyspnoea (Regimen 2C N = 8, Grade 3/4) | AE: Epistaxis (Regimen 2C N = 8, Grade 3/4) | AE: Fatigue (Regimen 2C N = 8, Grade 3/4) | AE: Gamma-Glutamyltransferase Increased (Regimen 2C N = 8, Grade 3/4) | AE: General Physical Health Deterioration (Regimen 2C N = 8, Grade 3/4) | AE: Gingival Bleeding (Regimen 2C N = 8, Grade 3/4) | AE: Graft Versus Host Disease (Regimen 2C N = 8, Grade 3/4) | AE: Haemoglobin Decreased (Regimen 2C N = 8, Grade 3/4) | AE: Headache (Regimen 2C N = 8, Grade 3/4) | AE: Hyperbilirubinaemia (Regimen 2C N = 8, Grade 3/4) | AE: Hyperglycaemia (Regimen 2C N = 8, Grade 3/4) | AE: Hyperkalaemia (Regimen 2C N = 8, Grade 3/4) | AE: Hyperphosphataemia (Regimen 2C N = 8, Grade 3/4) | AE: Hypoalbuminaemia (Regimen 2C N = 8, Grade 3/4) | AE: Hypocalcaemia (Regimen 2C N = 8, Grade 3/4) | AE: Hypokalaemia (Regimen 2C N = 8, Grade 3/4) | AE: Hypomagnesaemia (Regimen 2C N = 8, Grade 3/4) | AE: Hyponatraemia (Regimen 2C N = 8, Grade 3/4) | AE: Hypophosphataemia (Regimen 2C N = 8, Grade 3/4) | AE: Hypotension (Regimen 2C N = 8, Grade 3/4) | AE: Infection (Regimen 2C N = 8, Grade 3/4) | AE: Infective Glossitis (Regimen 2C N = 8, Grade 3/4) | AE: Iron Overload (Regimen 2C N = 8, Grade 3/4) | AE: Leukopenia (Regimen 2C N = 8, Grade 3/4) | AE: Lip Oedema (Regimen 2C N = 8, Grade 3/4) | AE: Lipase Increased (Regimen 2C N = 8, Grade 3/4) | AE: Macular Oedema (Regimen 2C N = 8, Grade 3/4) | AE: Malaise (Regimen 2C N = 8, Grade 3/4) | AE: Mouth Haemorrhage (Regimen 2C N = 8, Grade 3/4) | AE: Nausea (Regimen 2C N = 8, Grade 3/4) | AE: Oedema (Regimen 2C N = 8, Grade 3/4) | AE: Oedema Peripheral (Regimen 2C N = 8, Grade 3/4) | AE: Oral Disorder (Regimen 2C N = 8, Grade 3/4) | AE: Pain In Extremity (Regimen 2C N = 8, Grade 3/4) | AE: Pneumonia (Regimen 2C N = 8, Grade 3/4) | AE: Pollakiuria (Regimen 2C N = 8, Grade 3/4) | AE: Pyrexia (Regimen 2C N = 8, Grade 3/4) | AE: Rash (Regimen 2C N = 8, Grade 3/4) | AE: Rash Erythematous (Regimen 2C N = 8, Grade 3/4) | AE: Rash Papular (Regimen 2C N = 8, Grade 3/4) | AE: Rectal Haemorrhage (Regimen 2C N = 8, Grade 3/4) | AE: Skin Exfoliation (Regimen 2C N = 8, Grade 3/4) | AE: Stomatitis (Regimen 2C N = 8, Grade 3/4) | AE: Subarachnoid Haemorrhage (Regimen 2C N = 8, Grade 3/4) | AE: Vomiting (Regimen 2C N = 8, Grade 3/4) | AE: Weight Decreased (Regimen 2C N = 8, Grade 3/4)
8 (100) n (%): AE: Total (Regimen 2C N = 8, All Grades)
2 (25.0) n (%): AE: White Blood Cell Count Decreased (Regimen 2C N = 8, All Grades) | AE: White Blood Cell Count Decreased (Regimen 2C N = 8, Grade 3/4)
3 (37.5) n (%): AE: Nausea (Regimen 2C N = 8, All Grades) | AE: Anaemia (Regimen 2C N = 8, Grade 3/4) | AE: Febrile Neutropenia (Regimen 2C N = 8, Grade 3/4) | AE: Neutropenia/Neutrophil Count Decreased (Regimen 2C N = 8, Grade 3/4)
1 (12.5) n (%): AE: Pancytopenia (Regimen 2C N = 8, All Grades) | AE: Renal Failure (Regimen 2C N = 8, All Grades) | AE: Stomatitis (Regimen 2C N = 8, All Grades) | AE: Tumour Lysis Syndrome (Regimen 2C N = 8, All Grades) | AE: Vomiting (Regimen 2C N = 8, All Grades) | AE: Blood Creatinine Increased (Regimen 2C N = 8, Grade 3/4) | AE: Pancytopenia (Regimen 2C N = 8, Grade 3/4) | AE: Renal Failure (Regimen 2C N = 8, Grade 3/4) | AE: Tumour Lysis Syndrome (Regimen 2C N = 8, Grade 3/4)
